Consider 5 molecules from publication PMC11992225, “Antibacterial compounds against non-growing and intracellular bacteria” (npj Antimicrobials and Resistance, 2025).

One may read the EC50 as the concentration that produces a half-maximal response. Usually MIC stands for the lowest concentration found to suppress growth.

Values after ≈ are worked out from the molar mass of the structure shown. Read-outs that look alike come from different tables or passages of the source.

The test system of one experiment is non-growing UPEC CFT073. Kind of experiment: Dilution-regrowth assay (screen, hit validation, dose-response) on stationary-phase UPEC. The format is cell-based, Escherichia coli. As to conditions: for EC50: Escherichia coli, E. coli, regrowth delay of non-growing bacteria, 24 h treatment, OD600 6 h after 2500-fold dilution, read-out: EC50; for Regrowth, OD600 at 6h or 8h after dilution into drug-free medium: average. In short, it runs like this:
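Regrowth (OD600 after 6 h, 37 °C) of diluted non-growing CFT073, following 24 h compound treatment of 24 h stationary cultures, defines activity relative to untreated control. Screen at 20 µM, validation at 20, 10, 5 µM (duplicates), dose–response in three biological replicates fitted by five-parameter logistic.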

Experiment [1] relates to non-growing P. aeruginosa DSM1117. Kind of experiment: Dilution-regrowth assay (OD600, start-growth-time) on stationary-phase P. aeruginosa. In kind it is cell-based, Pseudomonas aeruginosa. The note with it: P. aeruginosa; for EC50: Pseudomonas aeruginosa, DSM1117, regrowth delay of non-growing bacteria, 1:4 CA-MHB pH 7.4, 24 h treatment, OD600 8 h after dilution, read-out: EC50; for Regrowth, OD600 at 6h or 8h after dilution into drug-free medium: average. A digest of the protocol:
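Stationary-phase cultures grown 24 h at 37 °C, 200 rpm, in 1:4 CA-MHB with 40 mM HEPES (pH 7.4), treated 24 h; preliminary compounds at 20 μM, 4 replicates. Regrowth OD600 read every 20 min at 37 °C; start-growth-time is when OD600 exceeds 0.12.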

The subject of another experiment is E. coli CFT073 (UPEC). Kind of experiment: MIC, standard microdilution assay, growing UPEC. In kind it is cell-based, Escherichia coli. As to conditions: Escherichia coli. In short, it runs like this: (§1)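 Each strain was exposed to serially diluted compound in broth, in triplicate. The media were TSB for Shigella; CA-MHB at pH 7.4 (HEPES 40 mM) for S. aureus, P. aeruginosa and UPEC; and, for UPEC only, low-pH LPM (pH 5.5, 30 mM MES).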
In general terms: Dilution methods test growth across graded concentrations, often in twofold steps.

The subject of the next experiment is P. aeruginosa DSM1117. Kind of experiment: MIC, standard microdilution assay, growing P. aeruginosa. In kind it is cell-based, Pseudomonas aeruginosa. The note with it: P. aeruginosa; for MIC: Pseudomonas aeruginosa, DSM1117. A digest of the protocol: as §1
The next experiment deals with S. aureus DSM2569. Kind of experiment: MIC, standard microdilution assay, growing S. aureus. In kind it is cell-based, Staphylococcus aureus. The note with it: Staphylococcus aureus, DSM2569; S. aureus; CA-MHB pH 7.4; read-out: MIC (μM) CA-MHB. A digest of the protocol: as §1
A further experiment deals with S. flexneri 5a M90T. Kind of experiment: MIC in tryptic soy broth, S. flexneri. In kind it is cell-based, Shigella flexneri. The note with it: Shigella flexneri, 5AM90T, read-out: MIC (μM) TSB. In short, it runs like this:
as §1

Setting [2] is: E. coli, pH 7.4, CA-MHB, read-out: MIC (μM) CA-MHB.
Setting [3] is: 1:4 diluted CA-MHB pH 7.4, read-out: MIC (μM) 1:4 CA-MHB.
Where [4] appears, read: CA-MHB pH 7.4, read-out: MIC (μM) CA-MHB.
Setting [5] is: E. coli, LPM pH 5.5, read-out: MIC.

With `NC1CCN(c2c(F)cc3c(=O)c(C(=O)O)cn(C4CC4)c3c2Cl)C1` (centres unmarked) [Clinafloxacin], the EC50 with non-growing UPEC CFT073 (pH 7.4, 1:4 CA-MHB) was 906 nM; in experiment [1], 41 nM. The MIC is 0.0125 µM (≈ 0.00457 µg/mL) in the experiment on E. coli CFT073 (UPEC) (setting [2]); 0.0125 µM (≈ 0.00457 µg/mL) in the experiment with E. coli CFT073 (UPEC) (see Dataset 1, read-out: MIC (lowest measured MIC for all hit compounds)); 0.25 µM (≈ 0.0914 µg/mL) in the experiment on P. aeruginosa DSM1117 (setting [3]); 0.5 µM (≈ 0.183 µg/mL) with P. aeruginosa DSM1117 (setting [4]); 0.125 µM (≈ 0.0457 µg/mL) in the experiment on S. aureus DSM2569; 0.0156 µM (≈ 0.00572 µg/mL) in the experiment with S. flexneri 5a M90T.
As for `Cc1oc(=O)oc1CN1CCN(c2cc3c(cc2F)c(=O)c(C(=O)O)c2n3C(C)S2)CC1` (centres unmarked) [Prulifloxacin], the “Regrowth, OD600 at 6h or 8h after dilution into drug-free medium” value in the experiment with non-growing UPEC CFT073 (E. coli in 1:4 CA-MHB (pH 7.4), concentration 1) stood at 0.198; in the experiment on non-growing UPEC CFT073 (E. coli in 1:4 CA-MHB (pH 7.4), concentration 2.5) it was 0.109; with non-growing UPEC CFT073 (E. coli in 1:4 CA-MHB (pH 7.4), concentration 5), 0.093; in the experiment with non-growing UPEC CFT073 (E. coli in 1:4 CA-MHB (pH 7.4), concentration 10), 0.094; with non-growing UPEC CFT073 (E. coli in 1:4 CA-MHB (pH 7.4), concentration 30) it was 0.092; in the experiment on non-growing UPEC CFT073 (E. coli in LPM (pH 5.5), concentration 1), 0.586. The “Regrowth, OD600 at 6h or 8h after dilution into drug-free medium” value was 0.570 with non-growing UPEC CFT073 (E. coli in LPM (pH 5.5), concentration 2.5); 0.549 with non-growing UPEC CFT073 (E. coli in LPM (pH 5.5), concentration 5); 0.564 in the experiment with non-growing UPEC CFT073 (E. coli in LPM (pH 5.5), concentration 10); 0.416 in the experiment on non-growing UPEC CFT073 (E. coli in LPM (pH 5.5), concentration 30); 0.094 in experiment [1] (concentration 2.5); 0.095 in experiment [1] (concentration 10). The EC50 in the experiment on non-growing UPEC CFT073 (pH 7.4, 1:4 CA-MHB) was determined as 571 nM; in experiment [1] it was 97 nM. Besides, the MIC in the experiment with E. coli CFT073 (UPEC) (setting [5]) is 0.125 µM (≈ 0.0577 µg/mL); with E. coli CFT073 (UPEC) (setting [2]), 0.025 µM (≈ 0.0115 µg/mL); in the experiment with P. aeruginosa DSM1117 (setting [3]), 1 µM (≈ 0.461 µg/mL); with P. aeruginosa DSM1117 (setting [4]), 1 µM (≈ 0.461 µg/mL); in the experiment with S. aureus DSM2569, 4 µM (≈ 1.85 µg/mL); with S. flexneri 5a M90T, 0.0312 µM (≈ 0.0144 µg/mL).
`C[C@@H]1CN(c2c(F)c(N)c3c(=O)c(C(=O)O)cn(C4CC4)c3c2F)C[C@H](C)N1` [Sparfloxacin]: the EC50 in the experiment with non-growing UPEC CFT073 (pH 7.4, 1:4 CA-MHB) is 6330 nM; in experiment [1], 381 nM. For the same molecule, the MIC in the experiment on E. coli CFT073 (UPEC) (setting [2]) was 0.025 µM (≈ 0.00981 µg/mL); in the experiment with P. aeruginosa DSM1117 (setting [3]), 2 µM (≈ 0.785 µg/mL); in the experiment with P. aeruginosa DSM1117 (setting [4]), 2 µM (≈ 0.785 µg/mL); in the experiment on S. aureus DSM2569 it was 0.25 µM (≈ 0.0981 µg/mL); in the experiment on S. flexneri 5a M90T, 0.0312 µM (≈ 0.0123 µg/mL).
In the case of `N[C@@H]1[C@H]2CN(c3nc4c(cc3F)c(=O)c(C(=O)O)cn4-c3ccc(F)cc3F)C[C@@H]12` [Trovafloxacin], the EC50 with non-growing UPEC CFT073 (LPM pH 5.5) came to 5180 nM; with non-growing UPEC CFT073 (pH 7.4, 1:4 CA-MHB), 1250 nM; in experiment [1], 1020 nM. The MIC with E. coli CFT073 (UPEC) (pH 5.5) came to 0.0625 µM (≈ 0.026 µg/mL); in the experiment with E. coli CFT073 (UPEC) (setting [2]) it was 0.4 µM (≈ 0.167 µg/mL); in the experiment on P. aeruginosa DSM1117 (setting [3]), 8 µM (≈ 3.33 µg/mL); in the experiment on P. aeruginosa DSM1117 (setting [4]), 2 µM (≈ 0.833 µg/mL); in the experiment on S. aureus DSM2569, 0.125 µM (≈ 0.052 µg/mL); in the experiment with S. flexneri 5a M90T, 0.0625 µM (≈ 0.026 µg/mL). In addition, in the experiment on P. aeruginosa DSM1117, the “increase of MIC in diluted CA-MHB versus CA-MHB” value is on record as “four”.
With `C[C@H]1NCc2cc(-c3ccc4c(=O)c(C(=O)O)cn(C5CC5)c4c3OC(F)F)ccc21` [Garenoxacin], the EC50 in the experiment with non-growing UPEC CFT073 (pH 7.4, 1:4 CA-MHB) amounted to 2190 nM; in experiment [1], 978 nM. Further, the MIC with E. coli CFT073 (UPEC) (setting [5]) came to 0.125 µM (≈ 0.0533 µg/mL); in the experiment on E. coli CFT073 (UPEC) (setting [2]) it was 0.125 µM (≈ 0.0533 µg/mL); with P. aeruginosa DSM1117 (setting [3]), 4 µM (≈ 1.71 µg/mL); with P. aeruginosa DSM1117 (setting [4]), 4 µM (≈ 1.71 µg/mL); in the experiment on S. aureus DSM2569, 0.125 µM (≈ 0.0533 µg/mL); in the experiment with S. flexneri 5a M90T, 0.0625 µM (≈ 0.0267 µg/mL).
